Measured values as given in patent publication US12637413B2, “Fatty acid amide hydrolase (FAAH) cleavable prodrugs of thyromimetics and combination with peripherally restricted FAAH inhibitors” (Autobahn Therapeutics, Inc., priority 2021, dated 2026).
pIC50: −log10 of the molar value.

How the values were obtained:
recombinant human FAAH = biological target: T1, recombinant human FAAH (Homo sapiens, UniProt O00519); assay: FAAH inhibition, 30 min preincubation, AMC substrate; type: biochemical; settings: 30 min preincubation with recombinant human FAAH and AMC; read-out: Apparent IC50s
T1 sequence (O00519 1-579): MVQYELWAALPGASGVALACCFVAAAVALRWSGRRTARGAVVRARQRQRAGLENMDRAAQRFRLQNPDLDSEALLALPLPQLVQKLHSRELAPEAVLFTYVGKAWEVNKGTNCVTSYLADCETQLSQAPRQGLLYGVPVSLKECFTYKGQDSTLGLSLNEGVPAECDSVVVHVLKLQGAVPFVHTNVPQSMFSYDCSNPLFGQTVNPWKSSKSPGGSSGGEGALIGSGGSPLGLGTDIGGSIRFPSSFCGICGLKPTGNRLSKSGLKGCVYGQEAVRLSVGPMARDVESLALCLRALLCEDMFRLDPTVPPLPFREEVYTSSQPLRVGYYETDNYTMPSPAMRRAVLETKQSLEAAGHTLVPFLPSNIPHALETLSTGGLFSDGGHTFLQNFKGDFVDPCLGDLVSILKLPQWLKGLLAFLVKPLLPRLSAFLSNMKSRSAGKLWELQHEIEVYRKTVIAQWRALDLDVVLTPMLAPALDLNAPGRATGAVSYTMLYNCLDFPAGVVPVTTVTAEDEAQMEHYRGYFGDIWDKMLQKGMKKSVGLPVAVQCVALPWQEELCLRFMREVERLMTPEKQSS

FAAH = biological target: T2, FAAH (Mus musculus, UniProt O08914); assay: tissue distribution after co-dosing prodrug ABX-002 with or without PFI or GFI; type: in vivo, mice; settings: for Distribution: peripheral or global FAAH inhibitor
T2 construct: from tissue; host or cells: living mice; plasma, liver and brain sampled
T2 sequence (O08914 1-579): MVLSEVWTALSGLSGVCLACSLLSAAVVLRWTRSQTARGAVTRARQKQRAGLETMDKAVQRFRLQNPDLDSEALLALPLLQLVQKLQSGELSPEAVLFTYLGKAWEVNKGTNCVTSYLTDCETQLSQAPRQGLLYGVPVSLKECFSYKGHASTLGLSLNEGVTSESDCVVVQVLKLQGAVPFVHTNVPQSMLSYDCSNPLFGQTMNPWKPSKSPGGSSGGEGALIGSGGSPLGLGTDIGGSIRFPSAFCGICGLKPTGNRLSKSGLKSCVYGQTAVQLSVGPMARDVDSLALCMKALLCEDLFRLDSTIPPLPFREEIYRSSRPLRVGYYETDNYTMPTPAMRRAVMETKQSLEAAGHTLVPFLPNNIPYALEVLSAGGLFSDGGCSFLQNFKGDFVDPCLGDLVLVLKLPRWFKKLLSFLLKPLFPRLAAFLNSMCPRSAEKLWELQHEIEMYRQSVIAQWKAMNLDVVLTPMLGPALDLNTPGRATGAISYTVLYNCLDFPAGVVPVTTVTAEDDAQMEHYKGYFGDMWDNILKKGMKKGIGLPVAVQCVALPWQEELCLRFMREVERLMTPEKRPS
Procedure: The ability of globally-penetrant and peripherally-restricted FAAH inhibitors (GFI & PFI, respectively) to alter distribution of ABX-002 and ABX-002A was assessed.
Table 5 depicts the inhibition of active metabolite (LL-650177 or PF-044578454) in AUC in the plasma, liver, and brain after prodrug (ABX-002) co-dosing. Tissue distribution studies in mice confirm global & peripheral inhibition of FAAH.

| Structure (SMILES) | pIC50 (recombinant human FAAH) | inhibition of active metabolite AUC, Brain (FAAH; ABX-002A AUC after ABX-002 co-dosing, mice, brain) | inhibition of active metabolite AUC, Liver (FAAH; ABX-002A AUC after ABX-002 co-dosing, mice, liver) | inhibition of active metabolite AUC, Plasma (FAAH; ABX-002A AUC after ABX-002 co-dosing, mice, plasma) | Distribution (FAAH) |
| --- | --- | --- | --- | --- | --- |
| O=C(Nc1cccnn1)N1CCC(=Cc2cccc(Oc3ccc(C(F)(F)F)cn3)c2)CC1 [PF-04457845] | 8.52 | 83% | 94% | 94% | Global |
| NC(=O)c1cccc(-c2cc(OC(=O)NC3CCCCC3)ccc2O)c1 [URB937] | 7.16 | – | – | – | Peripheral |
